Measured values reported in patent US6780885B1, “Formulations and methods for administration of pharmacologically or biologically active compounds” (IDEXX Laboratories, Inc., priority 2000, dated 2004).

How the values were obtained:
[1] = system: roundworms (Ascaridia); assay: ivermectin formulation in the drinking water of turkeys, roundworm infestation; format: in vivo; conditions: in three days
Experimental: (§1) The 2% ivermectin solution is diluted 20-fold to 0.1% in water. From the 0.1%, 3.4 ml is dissolved in 5 liters (QS) of water. The dose to be administered in order to obtain effective treatment of various parasites depends on the size of the fowl to be treated (i.e., their drinking capacity). A 4.5 kg turkey will typically drink 600-1000 ml of water every 24 hours. This corresponds to a dose of 100-150 μgm/kg/day. […] The effective dose to administer to any other type of animal to treat a particular type of parasite can be easily determined by simply varying the dosage until arriving at an effective dose.
A non-aqueous, stable formulation of ivermectin was prepared and diluted into the drinking water of market male turkeys as described above. […] The birds were treated at levels of 10, 50, 100, 200, 250, 500, 1200, and 1400 mg/kg of body weight/day. […] The formulation was effective at completely eliminating any visible signs of roundworm infestation at levels down to […] body weight/day in three days.

[2] = system: cecal worms (Heterakis); assay: ivermectin formulation in the drinking water of turkeys, cecal worms; format: in vivo; conditions: in three days
Experimental: as §1

**Q.** What does the source list for ivermectin?
**A.** dose effective to completely eliminate roundworms (Ascaridia) ([1]; in drinking water): 200 mg ivermectin/kg body weight/day; elimination of roundworms ([1]; formulation in drinking water): complete elimination; dose effective to completely eliminate cecal worms (Heterakis) ([2]; in drinking water): 200 mg ivermectin/kg body weight/day; elimination of cecal worms ([2]; formulation in drinking water): complete elimination
